The values that follow come from patent publication US20240158430A1, “NOVEL COMPOUND OR SALT THEREOF, AND ANTITUMOR ACTIVATOR CONTAINING SAME AS ACTIVE INGREDIENT” (AKITA UNIVERSITY, priority 2021, published 2024).

The subject of series [1] is gastric cancer cell line H-111-TC. The series is described as follows: Cell growth inhibitory activity, H-111-TC. The series is classed as cell-based. The settings on record: Table 6. The method, then: (§1) The cell growth inhibitory activity against a colorectal cancer cell line HCT116 was measured. As an index of cell growth inhibitory activity, a concentration at which cell growth was inhibited by 50% as compared with a control (IC50) was used. The method is as follows. HCT116 was added to a 6-well plate by 5×10^4, compounds having various concentrations were added after 24 hours, and the number of cells was counted after 72 hours of culture. As the control, DMSO was used in an amount equal to the amount added in accordance with the addition concentration of the highest-concentration compound. The number of cells at each concentration relative to the control was expressed as a percentage. In Table 3, the turbidities of the compounds are also indicated.
The cell growth inhibitory activity (IC50) of each of curcumin, GO-Y199, and GO-Y206 against the colorectal cancer cell lines DLD-1 and HCT116 and the gastric cancer cell lines KATO III and H-111-TC was measured. The method is as described above. FIG. 8 indicates the results of cell growth inhibitory activity of these compounds against various cancer cell lines.

For series [2], the system named is cutaneous T-cell lymphoma cell line HUT78. Kind of series: Cell growth inhibitory activity, HUT78. The class given is cell-based. The settings on record: Table 10. As for the experimental part: [The source words this procedure for another cell line and reports this cell line under the same test.] as §1, with “percentage.” for “percentage. In Table 3, the turbidities of the compounds are also indicated.”
(§2) The method is as described above.

For another series, the system named is HCT116. The series is described as follows: Cytocidal effect, HCT116. The series is classed as cell-based. The settings on record: 2 μM and 5 μM, cells counted after 48 and 72 hours. As for the experimental part: The method is as follows. Each cell line was added to 6-well plate by 5×10^4, 2 μM and 5 μM of GO-Y199 were added after 24 hours, and the number of cells was counted after 48 hours and 72 hours.

In series [3] the test system is pancreatic cancer cell line Panc-1. Kind of series: Cell growth inhibitory activity, Panc-1. The series is classed as cell-based. The settings on record: Table 7. The method, then: [The source words this procedure for another cell line and reports this cell line under the same test.] as §1, with “percentage.” for “percentage. In Table 3, the turbidities of the compounds are also indicated.”
as §2

Series [4] relates to vascular endothelial cells HUVEC-R resistant to Ki8751. Kind of series: Angiogenesis inhibitory activity, HUVEC-R. The class given is cell-based. The settings on record: Table 11; number of cells after 72 hours. The method, then:
HUVEC-R was cultured in the presence of each compound using an EGMTM-2 Bullet Kit (Takara Bio Inc., Otsu, Japan), and the number of cells was measured after 72 hours. In addition, IC50 was determined from the results.

For a further series, the system named is NF-kB (p65). Kind of series: Influence on NF-kB, immunohistochemistry in HCT116. The settings on record: 2 μM, 24 hours, control 96.8±1.1%. The series is classed as cell-based. The method, then:
(§3) The influence of GO-Y199 on NF-kB (p65) was investigated. The method is as follows. 3×10^6 cells of the HCT116 cell line were added to a 10-cm plate, 2 μM of GO-Y199 was added after 24 hours, the cells were collected after 24 hours, embedded in iPGell (GenOStaff), and fixed in formalin, paraffin blocks were then prepared, and immuno-histochemistry was performed with an anti-NF-kB (p65) antibody. In addition, 2 μM and 5 μM of GO-Y199 were added, lysates were collected after 24 hours, and an expression level of NF-kB (p65) was analyzed using an ELISA-plate (NF-kBp65 (pS536) SimpleStep-ELISA-kit, Abcam). An amount of protein was corrected by the absorbance of A 280 nm. The upper part of FIG. 14 indicates photographs of the control group and the GO-Y199 (2 μM)-added group after 24 hours. The lower part of FIG. 14 indicates results of the t-test of these groups after 24 hours. FIG. 15 indicates the comparison results of the NF-kB inhibitory effect of GO-Y199 (2 μM, 5 μM)-added groups with respect to the control group.

The test system of series [5] is apoptosis-related protein. Kind of series: Apoptosis-related protein, M30 Apotosense ELISA. The series is classed as cell-based. The settings on record: control 360 U/L. As for the experimental part:
as §3
The influence of GO-Y199 on Caspase 3 was investigated. The method is as described above. Immunohistochemistry was performed with an anti-Caspase 3 antibody. Quantification of apoptosis-related protein was performed using M30 Apotosense ELISA (PEVIVA). The upper part of FIG. 20 indicates photographs of the control group and the GO-Y199 (2 μM)-added group after 24 hours. […]
On the technique in general: ELISA stands for enzyme-linked immunosorbent assay.

The nature of a further series: Turbidity measurement. The class given is physicochemical. As for the experimental part:
The turbidity of various compounds was measured. The method is as follows. […] Curcumin was cloudy while GO-Y199 was clear. The solubility was measured with a turbidimeter (WZB-170 Portable Turbidimeter available from REX). The turbidity of the compound was corrected for concentration.
Subsequently, GO-Y206 and curcumin were adjusted to final concentrations of 1.25 μM and 5.00 μM, respectively, and their turbidities were measured.

For series [6], the system named is gastric cancer cell line GCIY. Kind of series: Cell growth inhibitory activity, GCIY. The class given is cell-based. As for the experimental part: [The source words this procedure for another cell line and reports this cell line under the same test.] as §1, with “percentage.” for “percentage. In Table 3, the turbidities of the compounds are also indicated.”
as §2

The test system of series [7] is cutaneous T-cell lymphoma cell line HH. Kind of series: Cell growth inhibitory activity, HH. The class given is cell-based. The settings on record: Table 10. As for the experimental part: [The source words this procedure for another cell line and reports this cell line under the same test.] as §1, with “percentage.” for “percentage. In Table 3, the turbidities of the compounds are also indicated.”
as §2

The structures appear in SMILES notation.

Turning to `COCOc1cc(/C=C/C(=O)CC(SCCOCCOCCOCCOCc2cn([C@@H]3O[C@H](CO)[C@@H](O[C@@H]4O[C@H](CO)[C@H](O)[C@H](O)[C@H]4O)[C@H](O)[C@H]3O)nn2)c2cc(OCOC)cc(OCOC)c2)cc(OCOC)c1` (some centres unmarked) [GO-Y199], the IC50 (as a rule, the point on the concentration scale where inhibition reaches its midpoint) in [1] stood at 2.9 µM; in [2] it was 0.84 µM; in [3] it was 0.95 µM; in series [4] it was 0.96 µM; in series [6] (Table 4, 72 hours), 160 nM; in series [7], 1.11 µM. Moreover, in the series with HCT116, the cytocidal effect entry was “cytocidal effect”. Moreover, the “proportion of cells expressing NF-kB (p65)” value in the series on NF-kB (p65) is 69.4±12.4%. In addition, the results for the “apoptosis-related protein activity (M30)” value in series [5] (2 μM) and in [5] (5 μM) were 1,830 U/L and 2,050 U/L, respectively. Besides, the Turbidity/μm in “Turbidity measurement” (Table 1, average turbidity corrected for final concentration (1.7-170 μm, per compound)) was determined as 0.00041 NTU/μM. The “Relative Value (turbidity)” value in “Turbidity measurement” (Table 1, turbidity/μm relative to curcumin = 1) stood at 0.0014. The “Turbidity (Relative Value)” value in “Turbidity measurement” (Table 3, relative to curcumin = 1) turned out to be 0.0014. Also, the “Ave Turbidity (NTU)” value in the series “Turbidity measurement” (final conc. 170 μm in DDW) is on record as 0.07 ± 0.05 NTU. Further, the appearance of solution result in the series “Turbidity measurement” (final concentration 50 μM in distilled water or DMEM with 10% fetal bovine serum, from DMSO) is given as “clear”. Besides, in series [6] (Table 5, ratio of IC50), the “GO-Y199 vs GO-Y030 (IC50 comparison), GCIY” value is 1.24. Further, in [6] (Table 5, ratio of IC50), the “GO-Y199 vs curcumin (IC50 comparison), GCIY” value is reported as 0.03.
